Assay results from patent US7867512B2, “Cross-linked polymersomes and related encapsulating membranes” (The Trustees of the University of Pennsylvania, priority 1999, dated 2011).

Legend:
[1] = Lipid probe incorporation and diffusivity by laser-photobleaching; format: physicochemical
Excerpt: In the same way, mixtures can be made of the copolymer amphiphiles with other synthetic or non-synthetic amphiphiles, such as, lipids or proteins. […] FIGS. 6A and 6B show the uniformity of fluorescence around an aspirated contour of membrane with 3 mol % mixed in with polymer before vesicle formation.

[2] = Micropipette aspiration of vesicle membranes (bending and area expansion moduli, rupture); format: physicochemical; settings: vesicles formed by electroformation
Method: The tool that has been used to measure many of the material properties of bilayer vesicles is “micropipette aspiration” as applied in FIG. 2. In micropipette aspiration, the rheology and material properties of micron-sized objects are measured using glass pipettes. Small, micron diameter pipettes are used to pick up, deform and manipulate micron-sized objects, such as giant lipid vesicles. The aspiration pressure is controlled by manometers, in which the hydrostatic pressure in a reservoir connected to the micropipette is varied in relation to a fixed reference. Pressure may be varied with a resolution of microns of H2O (or 10^−6 atm).
A deformable object is aspirated using a pressure driving force (or suction pressure), ΔP, and the object is drawn within the pipette to a projection length LP. […] The bending modulus is measured by exerting small tensions on the membrane, to smooth out thermally-driven surface undulations. […]
Analogous to a lipid bilayer, at low but increasing aspiration pressures, the thermally undulating polymersome membrane was progressively smoothed, increasing the projected area logarithmically with tension, τ, (FIG. 3A). From the slope of this increase (in tension units of mN/m) versus the fractional change, α, in vesicle area the bending modulus, Kb, was calculated (see, e.g., Evans et al., Phys. Rev. Lett. 64:2094 (1990); Helfrich et al., Nuovo Cimento D3:137 (1984)). […]

- lipid probe diffusivity [1]: approximately 3×10^−8 cm^2/s
- Ka, elastic modulus for area expansion [2]: ~180 mN/m
SMILES: CCCCCCCC/C=C\CCCCCCCC(=O)O[C@H](COC(=O)CCCCCCCCCCCCCCCCC)COP(=O)([O-])OCC[N+](C)(C)C [SOPC, 1-stearoyl-2-oleoyl phosphatidylcholine]
